ChEMBL document CHEMBL3885861, “Open TG-GATES”

Species on record: Rattus norvegicus
Test: Open TG-GATES - Regimen: Daily Repeat
Format: toxicity, organism-based, Sprague-Dawley
Parameters: regimen Daily Repeat, gender Male, age 6 weeks
Details: in vivo, po, 100 mg/kg, […], route gavage, dose level Low; for KIDNEY_L / KIDNEY_R / KIDNEY_TOTAL: tissue Kidney; for LIVER: tissue Liver; for A/G / ALP / ALT / AST / BUN / CRE / Ca / Cl / DBIL / GLC / IP / K / LDH / Na / PL / RALB / TBIL / TC / TG / TP / gamma-GTP: tissue Plasma

SMILES: COc1ccc(Cl)cc1C(=O)NCCc1ccc(S(=O)(=O)NC(=O)NC2CCCCC2)cc1 [GLYBURIDE]
- Lym (tissue Blood, time 28 day): 82.6%
- MCH (tissue Blood, time 28 day): 19.3 pg
- MCHC (tissue Blood, time 28 day): 34.9%
- MCV (tissue Blood, time 28 day): 55.4 fL
- Mono (tissue Blood, time 28 day): 2.4%
- Neu (tissue Blood, time 28 day): 13.4%
- PT (tissue Blood, time 28 day): 12.7 s
- Plat (tissue Blood, time 28 day): 105.5 x10_4/uL
- RBC (tissue Blood, time 28 day): 786.4 x10_4/ul
- Ret (tissue Blood, time 28 day): 2.6%
- WBC (tissue Blood, time 28 day): 115.6 x10_2/uL
- KIDNEY_L (time 7 day): 1.1 g
- KIDNEY_R (time 7 day): 1.1 g
- KIDNEY_TOTAL (time 7 day): 2.2 g
- KIDNEY_L (time 14 day): 1.1 g
- KIDNEY_R (time 14 day): 1.2 g
- KIDNEY_TOTAL (time 14 day): 2.3 g
- KIDNEY_L (time 28 day): 1.3 g
- KIDNEY_R (time 28 day): 1.3 g
- KIDNEY_TOTAL (time 28 day): 2.6 g
- LIVER (time 7 day): 12.7 g
- LIVER (time 14 day): 13 g
- LIVER (time 28 day): 15.8 g
- A/G (time 7 day): 1.5
- ALP (time 7 day): 816.2 IU/L
- ALT (time 7 day): 35.2 IU/L
- AST (time 7 day): 60.2 IU/L
- BUN (time 7 day): 15.8 mg/dL
- CRE (time 7 day): 0.4 mg/dL
- Ca (time 7 day): 11 mg/dL
- Cl (time 7 day): 102.4 meq/L
- DBIL (time 7 day): 0.1 mg/dL
- GLC (time 7 day): 196 mg/dL
- IP (time 7 day): 7.3 mg/dL
- K (time 7 day): 4.1 meq/L
- LDH (time 7 day): 155.2 IU/L
- Na (time 7 day): 140.6 meq/L
- PL (time 7 day): 151.8 mg/dL
- RALB (time 7 day): 3.4 g/dL
- TBIL (time 7 day): 0.2 mg/dL
- TC (time 7 day): 78.4 mg/dL
- TG (time 7 day): 116.4 mg/dL
- TP (time 7 day): 5.7 g/dL
- gamma-GTP (time 7 day): 1.2 IU/L
- A/G (time 14 day): 1.4
- ALP (time 14 day): 1042 IU/L
- ALT (time 14 day): 37 IU/L
- AST (time 14 day): 63.6 IU/L
- BUN (time 14 day): 15.2 mg/dL
- CRE (time 14 day): 0.5 mg/dL
- Ca (time 14 day): 10.7 mg/dL
- Cl (time 14 day): 102.2 meq/L
- DBIL (time 14 day): 0.1 mg/dL
- GLC (time 14 day): 193.2 mg/dL
- IP (time 14 day): 6.4 mg/dL
- K (time 14 day): 3.9 meq/L
- LDH (time 14 day): 138.2 IU/L
- Na (time 14 day): 140.2 meq/L
- PL (time 14 day): 166.4 mg/dL
- RALB (time 14 day): 3.5 g/dL
- TBIL (time 14 day): 0.2 mg/dL
- TC (time 14 day): 81.2 mg/dL
- TG (time 14 day): 116.8 mg/dL
- TP (time 14 day): 6 g/dL
- gamma-GTP (time 14 day): 0.6 IU/L
- A/G (time 28 day): 1.4
- ALP (time 28 day): 594 IU/L
- ALT (time 28 day): 33.6 IU/L
- AST (time 28 day): 58.4 IU/L
- BUN (time 28 day): 14.6 mg/dL
- CRE (time 28 day): 0.5 mg/dL
- Ca (time 28 day): 10.4 mg/dL
- Cl (time 28 day): 103.6 meq/L
- DBIL (time 28 day): 0.09 mg/dL
- GLC (time 28 day): 213.6 mg/dL
- IP (time 28 day): 6.4 mg/dL
- K (time 28 day): 3.9 meq/L
- LDH (time 28 day): 147 IU/L
- Na (time 28 day): 141 meq/L
- PL (time 28 day): 137.4 mg/dL
- RALB (time 28 day): 3.4 g/dL
- TBIL (time 28 day): 0.2 mg/dL
- TC (time 28 day): 69 mg/dL
- TG (time 28 day): 98.8 mg/dL
- TP (time 28 day): 5.8 g/dL
- gamma-GTP (time 28 day): 1.4 IU/L
